From patent EP1222194B1, “7-ACYLAMINO-3-HETEROARYLTHIO-3-CEPHEM CARBOXYLIC ACID ANTIBIOTICS AND PRODRUGS THEREOF” (priority 1999, dated 2001)
In brackets after ≈: the same amount, converted by molar mass.

Tests used:
Assay in all cases: Broth microdilution MIC (NCCLS)
Format in all cases: cell-based
[1] = tested on: S. haemolyticus 05 (Meth^R); conditions: Staphylococcus haemolyticus, Mueller-Hinton Broth, 24 h at 35 °C
Experimental: (§1) Compounds were evaluated for antimicrobial activity against a panel of bacterial strains using a broth microdilution assay performed as recommended by the NCCLS (1). The minimum inhibitory concentration (MIC) was defined as the lowest concentration of drug which prevented the growth of the bacteria. The following 16 organisms constituted the primary panel of evaluation:
(§2) For this primary panel, the assay was performed in Mueller-Hinton Broth (MHB) with a final bacterial inoculum of 5 x 10^5 CFU/mL (from an early-log phase culture) and a final volume of 100 µL. Control drugs, including imipenem, vancomycin, Penicillin G, dicloxacillin (vs. MSSA ATCC29213 only), and new compounds were prepared at a concentration equivalent to 2-fold the desired final concentration. Dilution of compounds were prepared directly in the plates by serial 2-fold dilution using a multichannel pipette. Positive and negative growth control were included in each plate.
(§3) The bacterial inocula were prepared as follows. For each strain one isolated colony was used to inoculate a volume of 8 mL of Mueller-Hinton broth and these cultures were incubated overnight (20h) at 35 °C in a shaking incubator. At the exception of Enterococcus strains, culture were then diluted 1:10 and allowed to grow for an additional one hour at 35 °C in a shaking incubator. The inocula were prepared by diluting the early log-phase (1h) cultures 1:1000 with fresh Mueller-Hinton broth. E. faecium and E. faecalis were prepared by diluting overnight cultures 1:333 and 1:666, respectively, with fresh Mueller-Hinton broth . A volume of 50 µL of the inocula was added to each well. […] The exact inocula were determined by applying […] of 10-fold serial dilution of the bacterial suspensions on TSA. After overnight incubation at 35 °C, colony forming units were manually counted.
(§4) Microtiter plates were incubated during 24 h at 35 °C and were read using a microtiterplate reader (Molecular Devices) at 650 nm as well as by visual observation using a microtiterplate reading mirror.

E. faecalis VanB (Van^R) = conditions: Enterococcus faecalis, Mueller-Hinton Broth, 24 h at 35 °C
Experimental: as §1, §2, §3, §4

E. faecium ATCC 35667 = conditions: Enterococcus faecium, ATCC35667, Mueller-Hinton Broth, 24 h at 35 °C
Experimental: as §1, §2, §3, §4

P. aeruginosa ATCC 27853 = conditions: Pseudomonas aeruginosa, ATCC27853, Mueller-Hinton Broth, 24 h at 35 °C
Experimental: as §1, §2, §3, §4

[2] = tested on: S. aureus ATCC 33593 (Meth^R); conditions: Staphylococcus aureus, ATCC33593, Mueller-Hinton Broth, 24 h at 35 °C
Experimental: as §1, §2, §3, §4

E. faecium A491 (Amp^R) = conditions: Enterococcus faecium, Mueller-Hinton Broth, 24 h at 35 °C
Experimental: as §1, §2, §3, §4

E. faecalis ATCC 29212 = conditions: Enterococcus faecalis, ATCC29212, Mueller-Hinton Broth, 24 h at 35 °C
Experimental: as §1, §2, §3, §4

E. coli ATCC25992 = conditions: Escherichia coli, Mueller-Hinton Broth, 24 h at 35 °C
Experimental: as §1, §2, §3, §4

[3] = tested on: S. aureus ATCC 13709 (Meth^S); conditions: Staphylococcus aureus, ATCC13709, Mueller-Hinton Broth, 24 h at 35 °C
Experimental: as §1, §2, §3, §4

[4] = tested on: S. aureus Spain #356 (Meth^R); conditions: Staphylococcus aureus, Mueller-Hinton Broth, 24 h at 35 °C
Experimental: as §1, §2, §3, §4

E. faecium VanA (Van^R) = conditions: Enterococcus faecium, Mueller-Hinton Broth, 24 h at 35 °C
Experimental: as §1, §2, §3, §4

[5] = tested on: S. aureus 76 (Meth^R)(lac^+); conditions: Staphylococcus aureus, Mueller-Hinton Broth, 24 h at 35 °C
Experimental: as §1, §2, §3, §4

S. aureus ATCC 29213 = conditions: Staphylococcus aureus, ATCC29213, Mueller-Hinton Broth, 24 h at 35 °C
Experimental: as §1, §2, §3, §4

With NCCSCc1ncccc1SC1=C(C(=O)O)N2C(=O)[C@@H](NC(=O)/C(=N\O)c3nc(N)sc3Cl)[C@H]2SC1 [Cmpd 1, (7R)-7-[(Z)-2-(2-amino-5-chlorothiazol-4-yl)-2-(hydroxyimino)acetamido]-3-[2-(2-aminoethylthiomethyl)pyrid-3-ylthio]-3-cephem-4-carboxylic acid] the MIC [1] was 1 µg/mL (≈ 1.66 µM), the MIC (E. faecalis VanB (Van^R)) was 0.13 µg/mL (≈ 0.216 µM) and the MIC (E. faecium ATCC 35667) was 0.5 µg/mL (≈ 0.83 µM). The MIC (P. aeruginosa ATCC 27853) was 32 µg/mL (≈ 53.1 µM), the MIC [2] was 1 µg/mL (≈ 1.66 µM) and the MIC (E. faecium A491 (Amp^R)) was 8 µg/mL (≈ 13.3 µM). It also gave an MIC (E. faecalis ATCC 29212) of 0.06 µg/mL (≈ 0.0996 µM), an MIC (E. coli ATCC25992) of 4 µg/mL (≈ 6.64 µM) and an MIC [3] of 0.13 µg/mL (≈ 0.216 µM). The MIC [4] was 1 µg/mL (≈ 1.66 µM), the MIC (E. faecium VanA (Van^R)) was 1 µg/mL (≈ 1.66 µM) and the MIC [5] was 1 µg/mL (≈ 1.66 µM).

For NCCSCc1ncccc1SC1=C(C(=O)O)N2C(=O)[C@@H](NC(=O)/C(=N\O)c3nsc(N)n3)[C@H]2SC1 [Cmpd 2, (7R)-7-[(Z)-2-(5-amino-1,2,4-thiadiazol-3-yl)-2-(hydroxyimino)acetamido]-3-[2-(2-aminoethylthiomethyl)pyrid-3-ylthio]-3-cephem-4-carboxylic acid], the MIC [1] was 2 µg/mL (≈ 3.52 µM), the MIC (E. faecalis VanB (Van^R)) was 0.5 µg/mL (≈ 0.879 µM) and the MIC (E. faecium ATCC 35667) was 1 µg/mL (≈ 1.76 µM). It also gave an MIC (P. aeruginosa ATCC 27853) of over 32 µg/mL, an MIC [2] of 1 µg/mL (≈ 1.76 µM) and an MIC (E. faecium A491 (Amp^R)) of over 32 µg/mL. For the same molecule, the MIC (E. faecalis ATCC 29212) was 1 µg/mL (≈ 1.76 µM), the MIC (E. coli ATCC25992) was 1 µg/mL (≈ 1.76 µM) and the MIC [4] was 1 µg/mL (≈ 1.76 µM). It also gave an MIC (E. faecium VanA (Van^R)) of 2 µg/mL (≈ 3.52 µM) and an MIC [5] of 1 µg/mL (≈ 1.76 µM).

N=C(N)NCCSCc1ncccc1SC1=C(C(=O)O)N2C(=O)[C@@H](NC(=O)/C(=N\O)c3nsc(N)n3)[C@H]2SC1 [Cmpd 2-R, (7R)-7-[(Z)-2-(5-amino-1,2,4-thiadiazol-3-yl)-2-(hydroxyimino)acetamido]-3-[2-(2-guanidinoethylthiomethyl)pyrid-3-ylthio]-3-cephem-4-carboxylic acid] was tested, and the MIC [1] was 2 µg/mL (≈ 3.27 µM), the MIC (E. faecium ATCC 35667) was 0.5 µg/mL (≈ 0.819 µM) and the MIC (S. aureus ATCC 29213) was 0.13 µg/mL (≈ 0.213 µM). The MIC (P. aeruginosa ATCC 27853) was over 32 µg/mL, the MIC [2] was 1 µg/mL (≈ 1.64 µM) and the MIC (E. faecium A491 (Amp^R)) was 32 µg/mL (≈ 52.4 µM). For the same molecule, the MIC (E. faecalis ATCC 29212) was 1 µg/mL (≈ 1.64 µM), the MIC (E. coli ATCC25992) was 1 µg/mL (≈ 1.64 µM) and the MIC [3] was 0.13 µg/mL (≈ 0.213 µM). The MIC [4] was 1 µg/mL (≈ 1.64 µM), the MIC (E. faecium VanA (Van^R)) was 1 µg/mL (≈ 1.64 µM) and the MIC [5] was 1 µg/mL (≈ 1.64 µM).

Molecule N=C(N)NCCSCc1ncccc1SC1=C(C(=O)O)N2C(=O)[C@@H](NC(=O)/C(=N\O)c3nc(N)sc3Cl)[C@H]2SC1 [Cmpd 2-S, (7R)-7-[(Z)-2-(2-amino-5-chlorothiazol-4-yl)-2-(hydroxyimino)acetamido]-3-[2-(2-guanidinoethylthiomethyl)pyrid-3-ylthio]-3-cephem-4-carboxylic acid] has an MIC [1] of 1 µg/mL (≈ 1.55 µM), an MIC (E. faecalis VanB (Van^R)) of 0.06 µg/mL (≈ 0.0931 µM) and an MIC (E. faecium ATCC 35667) of 0.25 µg/mL (≈ 0.388 µM). It also gave an MIC (S. aureus ATCC 29213) of 0.13 µg/mL (≈ 0.202 µM), an MIC (P. aeruginosa ATCC 27853) of over 32 µg/mL and an MIC [2] of 0.5 µg/mL (≈ 0.776 µM). It also gave an MIC (E. faecium A491 (Amp^R)) of 4 µg/mL (≈ 6.21 µM), an MIC (E. faecalis ATCC 29212) of 0.06 µg/mL (≈ 0.0931 µM) and an MIC (E. coli ATCC25992) of 4 µg/mL (≈ 6.21 µM). It also gave an MIC [3] of 0.06 µg/mL (≈ 0.0931 µM), an MIC [4] of 0.5 µg/mL (≈ 0.776 µM) and an MIC (E. faecium VanA (Van^R)) of 0.5 µg/mL (≈ 0.776 µM). The MIC [5] was 0.5 µg/mL (≈ 0.776 µM).

Work on NCCSCc1ccncc1SC1=C(C(=O)O)N2C(=O)[C@@H](NC(=O)/C(=N\O)c3nc(N)sc3Cl)[C@H]2SC1 [Cmpd 3, (7R)-7-[(Z)-2-(2-amino-5-chlorothiazol-4-yl)-2-(hydroxyimino)acetamido]-3-[4-(2-aminoethylthiomethyl)pyrid-3-ylthio]-3-cephem-4-carboxylic acid] yielded an MIC [1] of 2 µg/mL (≈ 3.32 µM), an MIC (E. faecalis VanB (Van^R)) of 0.5 µg/mL (≈ 0.83 µM) and an MIC (E. faecium ATCC 35667) of 1 µg/mL (≈ 1.66 µM). For the same molecule, the MIC (S. aureus ATCC 29213) was 0.13 µg/mL (≈ 0.216 µM), the MIC (P. aeruginosa ATCC 27853) was 32 µg/mL (≈ 53.1 µM) and the MIC [2] was 1 µg/mL (≈ 1.66 µM). For the same molecule, the MIC (E. faecium A491 (Amp^R)) was 32 µg/mL (≈ 53.1 µM), the MIC (E. faecalis ATCC 29212) was 0.13 µg/mL (≈ 0.216 µM) and the MIC (E. coli ATCC25992) was 4 µg/mL (≈ 6.64 µM). The MIC [3] was 0.13 µg/mL (≈ 0.216 µM), the MIC [4] was 1 µg/mL (≈ 1.66 µM) and the MIC (E. faecium VanA (Van^R)) was 2 µg/mL (≈ 3.32 µM). The MIC [5] was 1 µg/mL (≈ 1.66 µM).
